Where “and” joins values, the source holds several entries; their conditions need not be identical. Identical values can stand only once. Inconclusive results and toxic doses are left out. Cut-off read from the data, not from the text of the source: active = T/C of 150% or more; inactive = T/C below 125%.
Tested on: L1210 leukemia ip in BDF1 mice, survival T/C
Assay: NCI In Vivo Anticancer Drug Screen. Data for tumor model L1210 Leukemia (intraperitoneal) in B6D2F1 (BDF1) mice
Settings: endpoint: mean survival time, higher = longer survival
Procedure, shortened: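 Ratio derived from survival: compound-dosed mice over vehicle-dosed mice, all bearing a transplantable tumor.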

[1] = dose: 100.0 mg/kg/injection, schedule: Q04DX002 (ip), vehicle: Klucel (hydroxypropylcellulose) (HPC)
[2] = dose: 200.0 mg/kg/injection, schedule: Q04DX002 (ip), vehicle: Klucel (hydroxypropylcellulose) (HPC)
[3] = dose: 400.0 mg/kg/injection, schedule: Q04DX002 (ip), vehicle: Klucel (hydroxypropylcellulose) (HPC)
[4] = dose: 50.0 mg/kg/injection, schedule: Q01DX001 (ip), vehicle: carboxymethylcellulose (CMC)
[5] = dose: 100.0 mg/kg/injection, schedule: Q01DX001 (ip), vehicle: carboxymethylcellulose (CMC)
[6] = dose: 200.0 mg/kg/injection, schedule: Q01DX001 (ip), vehicle: carboxymethylcellulose (CMC)
[7] = dose: 400.0 mg/kg/injection, schedule: Q01DX001 (ip), vehicle: carboxymethylcellulose (CMC)

Measured: T/C

COC1C=CC(OC)(C(OC)OC)O1 (stereo not drawn)
inactive: dose: 100.0 mg/kg/injection, schedule: Q01DX001 (ip), vehicle: saline 104 % of control | dose: 200.0 mg/kg/injection, schedule: Q01DX001 (ip), vehicle: saline 101 % of control | dose: 400.0 mg/kg/injection, schedule: Q01DX001 (ip), vehicle: saline 98 % of control

CC1(C)OC2COC(c3[nH]nc4c(=O)[nH][nH]c(=O)c34)C2O1 (stereo not drawn)
inactive: dose: 100.0 mg/kg/injection, schedule: Q01DX005 (ip), vehicle: saline 103 % of control | dose: 200.0 mg/kg/injection, schedule: Q01DX005 (ip), vehicle: saline 106 % of control

Cc1cccc(Cl)c1NC(=S)Nc1ccccc1
inactive: [1] 101 % of control | [2] 94 % of control | [3] 97 % of control

CN1C(=O)OC2C3NC(=O)OC3C(O)C(O)C21 (stereo not drawn)
inactive: [4] 109 % of control | [5] 109 % of control | [6] 107 % of control | [7] 102 % of control

CC(=O)Oc1c(Cl)c(Cl)c(Cl)c(Cl)c1Cl
inactive: dose: 100.0 mg/kg/injection, schedule: Q01DX009 (ip), vehicle: saline sonified 101 % of control | dose: 100.0 mg/kg/injection, schedule: Q04DX003 (ip), vehicle: Klucel (hydroxypropylcellulose) (HPC) 100 % of control | dose: 200.0 mg/kg/injection, schedule: Q01DX009 (ip), vehicle: saline sonified 107 % of control | dose: 200.0 mg/kg/injection, schedule: Q04DX003 (ip), vehicle: Klucel (hydroxypropylcellulose) (HPC) 100 % of control | dose: 400.0 mg/kg/injection, schedule: Q01DX009 (ip), vehicle: saline sonified 106 % of control | dose: 400.0 mg/kg/injection, schedule: Q04DX003 (ip), vehicle: Klucel (hydroxypropylcellulose) (HPC) 93 % of control

O=S(=O)(O)SCCCNCCCNCCCSS(=O)(=O)O
inactive: dose: 9.37 mg/kg/injection, schedule: Q01DX009 (ip), vehicle: saline 88 % of control | dose: 18.75 mg/kg/injection, schedule: Q01DX009 (ip), vehicle: saline 87 % of control | dose: 37.5 mg/kg/injection, schedule: Q01DX009 (ip), vehicle: saline 93 % of control | dose: 37.5 mg/kg/injection, schedule: Q04DX003 (ip), vehicle: saline 98 % of control | dose: 75.0 mg/kg/injection, schedule: Q01DX001 (ip), vehicle: saline 102 % of control | dose: 75.0 mg/kg/injection, schedule: Q04DX003 (ip), vehicle: saline 93 % of control | dose: 150.0 mg/kg/injection, schedule: Q01DX001 (ip), vehicle: saline 96 % of control

CCCCCCCC(=O)N1CCOCC1
inactive: dose: 50.0 mg/kg/injection, schedule: Q04DX003 (ip), vehicle: saline with Tween-80 96 % of control

C(=Nc1cnc2ccccc2c1)c1ccnc2ccccc12
inactive: [4] 95 % of control | [5] 104 % of control | [6] 107 % of control | [7] 95 % of control

COc1ccc2cc3[n+](cc2c1OC)CCc1cc2c(cc1-3)OCO2
inactive: dose: 3.12 mg/kg/injection, schedule: Q01DX009 (ip), vehicle: Klucel (hydroxypropylcellulose) (HPC) 110 % of control | dose: 5.0 mg/kg/injection, schedule: Q01DX001 (ip), vehicle: saline 103 % of control | dose: 6.25 mg/kg/injection, schedule: Q01DX009 (ip), vehicle: Klucel (hydroxypropylcellulose) (HPC) 117 % of control | dose: 10.0 mg/kg/injection, schedule: Q01DX001 (ip), vehicle: saline 109 % of control | dose: 12.0 mg/kg/injection, schedule: Q01DX Z (ip), vehicle: saline 114 % of control | dose: 12.5 mg/kg/injection, schedule: Q01DX009 (ip), vehicle: Klucel (hydroxypropylcellulose) (HPC) 101 % of control and 106 % of control | dose: 20.0 mg/kg/injection, schedule: Q01DX001 (ip), vehicle: saline 109 % of control

COc1ccc2cc1Oc1ccc(cc1)CC1c3c(cc(OC)c4c3Oc3cc5c(cc3O4)CCNC5C2)CCN1C (stereo not drawn)
inactive: [1] 98 % of control | [2] 98 % of control | [3] 91 % of control

CC(=O)Nc1ccc(Cl)c(F)c1Cl
inactive: [1] 104 % of control | [2] 93 % of control | [3] 107 % of control
